Measured values: ChEMBL document CHEMBL5154900, “Design and Synthesis of Dual EZH2/BRD4 Inhibitors to Target Solid Tumors” (J Med Chem, 2022)
The source made the active and inactive calls. No cut-off for these calls is given here.

Legend:
[1] = target: T1, Histone-lysine N-methyltransferase EZH2 (Homo sapiens, UniProt Q15910); experiment: Inhibition of EZH2 in human ASPC1 cells assessed as decrease in H3K27me3 levels at 1 uM incubated for 72 hrs by Western blot analysis; assay type: cell-based
[2] = target: T2, Bromodomain-containing protein 4 (Homo sapiens, UniProt O60885); experiment: Binding affinity to BRD4 in human A549 cell lysate assessed as increase in thermal stability at 10 uM incubated for 1 hr followed by temperature treatment at 45 to 54.5 degC for 3 mins by thermal shift assay; assay type: subcellular; conditions: time 63.0 min
[3] = system: A549; experiment: Inhibition of EZH2/BRD4 in human A549 cell lysate assessed as ternary complex formation at 1 uM preincubated for 24 hrs for 30 mins followed by DSP treatment by co-immunoprecipitation method; assay type: subcellular; conditions: time 24.5 hrs
[4] = system: ASPC1; experiment: Antitumor activity against human ASPC1 cells assessed as inhibition of colony formation measured after 12 to 20 days by crystal violet staining based analysis; assay type: functional, cell-based; conditions: dose <= 0.1 µM, time 12-20 day, DDE = dose-dependent effect
[5] = system: A549; experiment: Antitumor activity against human A549 cells assessed as inhibition of colony formation measured after 12 to 20 days by crystal violet staining based analysis; assay type: functional, cell-based; conditions: dose <= 0.4 µM, time 12-20 day, DDE = dose-dependent effect
[6] = target: T1, Histone-lysine N-methyltransferase EZH2; experiment: Inhibition of EZH2 in human ASPC1 cells assessed as decrease in H3K27me3 level at 0.05 uM incubated for 72 hrs by Western blot analysis; assay type: cell-based
[7] = target: T1, Histone-lysine N-methyltransferase EZH2; experiment: Inhibition of EZH2 in human HCT-116 cells assessed as decrease in H3K27me3 level at 0.05 uM incubated for 72 hrs by Western blot analysis; assay type: cell-based
[8] = target: T1, Histone-lysine N-methyltransferase EZH2; experiment: Inhibition of EZH2 in human A549 cells assessed as decrease in H3K27me3 level at 0.05 uM incubated for 72 hrs by Western blot analysis; assay type: cell-based
[9] = target: T2, Bromodomain-containing protein 4; experiment: Inhibition of BRD4 in human A549 cells assessed as increase in p21 levels incubated for 72 hrs by Western blot analysis; assay type: cell-based; conditions: dose <= 2.5 µM, DDE = dose-dependent effect
[10] = system: ASPC1; experiment: Induction of cell cycle arrest in 24 hr starved human ASPC1 cells assessed as accumulation at G0/G1 phase at 1 uM measured after 48 hrs by PI staining based flow cytometric analysis; assay type: functional
[11] = system: ASPC1; experiment: Induction of apoptosis in human ASPC-1 cells assessed as downregulation of Bcl-xl protein at 1 uM inubated for 72 hrs by Western blot analysis; assay type: functional, cell-based
[12] = system: HCT-116; experiment: Induction of apoptosis in human HCT116 cells assessed as downregulation of Bcl-2 protein at 1 uM inubated for 72 hrs by Western blot analysis; assay type: functional, cell-based
[13] = system: HCT-116; experiment: Induction of apoptosis in human HCT116 cells assessed as upregulation of p21 protein at 1 uM inubated for 72 hrs by Western blot analysis; assay type: functional, cell-based
[14] = Half life in 12 hr fasted BALB/c mouse at 80 mg/kg, ip measured for 0.083 to 24 hrs by UPLC-MS/MS analysis; assay type: ADME, organism-based; conditions: in vivo, time 0.083-24 hrs
[15] = Cmax in 12 hr fasted BALB/c mouse at 80 mg/kg, ip measured for 0.083 to 24 hrs by UPLC-MS/MS analysis; assay type: ADME, organism-based; parameters: dose 80 mg/kg, time upper 24 hrs, time lower 0.083 hrs, route ip; conditions: in vivo
[16] = AUC in 12 hr fasted BALB/c mouse at 80 mg/kg, ip measured for 0.083 to 24 hrs by UPLC-MS/MS analysis; assay type: ADME, organism-based; parameters: time lower 0.083 hrs, dose 80 mg/kg, time upper 24 hrs, route ip; conditions: in vivo
[17] = Clearance in 12 hr fasted BALB/c mouse at 80 mg/kg, ip measured for 0.083 to 24 hrs by UPLC-MS/MS analysis; assay type: ADME, organism-based; conditions: in vivo, time 0.083-24 hrs
[18] = Half life in 12 hr fasted BALB/c mouse at 80 mg/kg, po measured for 0.083 to 24 hrs by UPLC-MS/MS analysis; assay type: ADME, organism-based; conditions: in vivo, time 0.083-24 hrs
[19] = Tmax in 12 hr fasted BALB/c mouse at 80 mg/kg, po measured for 0.083 to 24 hrs by UPLC-MS/MS analysis; assay type: ADME, organism-based; conditions: in vivo, time 0.083-24 hrs
[20] = Cmax in 12 hr fasted BALB/c mouse at 80 mg/kg, po measured for 0.083 to 24 hrs by UPLC-MS/MS analysis; assay type: ADME, organism-based; parameters: dose 80 mg/kg, time 0.083-24 hrs, route po; conditions: in vivo
[21] = AUC in 12 hr fasted BALB/c mouse at 80 mg/kg, po measured for 0.083 to 24 hrs by UPLC-MS/MS analysis; assay type: ADME, organism-based; parameters: time upper 24 hrs, dose 80 mg/kg, time lower 0.083 hrs, route po; conditions: in vivo
[22] = system: ASPC1; experiment: Antiproliferative activity against human ASPC1 cells assessed as cell growth inhibition incubated for 6 days by MTS assay; assay type: functional, cell-based; conditions: ASPC1, 144 h, read-out: IC50
[23] = target: T2, Bromodomain-containing protein 4; experiment: Displacement of fluorescein-labeled JQ1 from His6/TEV cleavage site fused human BRD4 (residues N44 to E168) expressed in Escherichia coli BL21 (DE3) incubated for 60 min by Fluorescence polarization assay
[24] = system: ASPC1; experiment: Effect on ADRB2 mRNA levels in human ASPC1 cells at 5 uM incubated for 48 hrs by RT-qPCR analysis; assay type: functional, cell-based
[25] = system: HCT-116; experiment: Effect on ADRB2 mRNA levels in human HCT-116 cells at 5 uM incubated for 48 hrs by RT-qPCR analysis; assay type: functional, cell-based
[26] = system: A549; experiment: Effect on ADRB2 mRNA levels in human A549 cells at 5 uM incubated for 48 hrs by RT-qPCR analysis; assay type: functional, cell-based
[27] = system: ASPC1; experiment: Effect on TXINP mRNA levels in human ASPC1 cells at 5 uM incubated for 48 hrs by RT-qPCR analysis; assay type: functional, cell-based
[28] = system: HCT-116; experiment: Effect on TXINP mRNA levels in human HCT-116 cells at 5 uM incubated for 48 hrs by RT-qPCR analysis; assay type: functional, cell-based
[29] = system: HCT-116; experiment: Effect on TRHDE mRNA levels in human HCT-116 cells at 5 uM incubated for 48 hrs by RT-qPCR analysis; assay type: functional, cell-based
[30] = system: A549; experiment: Effect on TRHDE mRNA levels in human A549 cells at 5 uM incubated for 48 hrs by RT-qPCR analysis; assay type: functional, cell-based
[31] = system: HCT-116; experiment: Induction of cell cycle arrest in 24 hr starved human HCT-116 cells assessed as accumulation at G0/G1 phase at 1 uM measured after 48 hrs by PI staining based flow cytometric analysis; assay type: functional
[32] = Permeability of compound across apical to basolateral side in human Caco-2 cells measured for 1 to 3 hrs by LC-MS analysis; assay type: ADME, cell-based; conditions: time 1-3 hrs
[33] = system: ASPC1; experiment: Antitumor activity against human ASPC1 cells xenografted in BALB/c mouse assessed as tumor growth inhibition at 80 mg/kg, ip administered 3 times weekly for 28 days and measured every 3 days relative to control; assay type: functional; parameters: scale not given: the % may be the effect or the level left; conditions: time 28 day
[34] = system: A549; experiment: Antitumor activity against human A549 cells xenografted in BALB/c mouse assessed as tumor growth inhibition at 80 mg/kg, ip administered 3 times weekly for 40 days and measured every 3 days relative to control; assay type: functional; parameters: scale not given: the % may be the effect or the level left; conditions: time 40 day
[35] = system: A549; experiment: Antitumor activity against human A549 cells xenografted in BALB/c mouse assessed as reduction in tumor volume at 60 mg/kg, ip administered 6 times weekly for 38 days and measured every 3 days relative to control; assay type: functional; parameters: scale not given: the % may be the effect or the level left; conditions: time 38 day
[36] = Toxicity in BALB/c mouse xenografted with human A549 cells assessed as body weight loss at 60 mg/kg, ip administered 6 times weekly for 38 days; assay type: organism-based; conditions: in vivo, 912 h, time 38 day

T1 sequence (Q15910 whole entry, looked up): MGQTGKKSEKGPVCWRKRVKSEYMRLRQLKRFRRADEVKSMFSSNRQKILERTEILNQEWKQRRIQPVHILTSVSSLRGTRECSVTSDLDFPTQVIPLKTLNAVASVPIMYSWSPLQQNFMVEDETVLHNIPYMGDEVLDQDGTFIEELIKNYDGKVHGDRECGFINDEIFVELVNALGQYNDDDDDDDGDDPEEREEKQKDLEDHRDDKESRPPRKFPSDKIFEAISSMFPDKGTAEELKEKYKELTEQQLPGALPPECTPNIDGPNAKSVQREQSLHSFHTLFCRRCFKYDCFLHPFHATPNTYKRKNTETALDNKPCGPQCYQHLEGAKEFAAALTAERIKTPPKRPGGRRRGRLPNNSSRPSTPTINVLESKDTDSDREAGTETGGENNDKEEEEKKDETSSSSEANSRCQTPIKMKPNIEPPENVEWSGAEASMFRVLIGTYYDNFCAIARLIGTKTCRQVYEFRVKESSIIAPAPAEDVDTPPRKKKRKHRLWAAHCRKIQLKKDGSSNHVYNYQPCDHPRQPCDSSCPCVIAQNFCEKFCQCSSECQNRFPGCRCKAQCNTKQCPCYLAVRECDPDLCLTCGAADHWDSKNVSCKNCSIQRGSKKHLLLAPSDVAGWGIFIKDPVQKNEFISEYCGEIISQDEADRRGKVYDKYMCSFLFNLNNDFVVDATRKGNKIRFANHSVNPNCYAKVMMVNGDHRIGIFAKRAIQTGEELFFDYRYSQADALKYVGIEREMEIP

In the case of `CCN(c1cc(-c2ccc(OCCCCCNC(=O)C[C@@H]3N=C(c4ccc(Cl)cc4)c4c(sc(C)c4C)-n4c(C)nnc43)cc2)cc(C(=O)NCc2c(C)cc(C)[nH]c2=O)c1C)C1CCOCC1`, the inhibition [1] is reported as “Active”, the Activity [2] is reported as “Active” and the inhibition [3] is reported as “Active”. The Activity [4] was “Dde”, the Activity [5] was “Dde” and the inhibition [6] was “Active”. For the same molecule, the inhibition [7] was “Active”, the inhibition [8] was “Active” and the inhibition [9] was “Dde”. The Activity [10] was “Active”, the Activity [11] was “Active” and the Activity [12] was “Active”. For the same molecule, the Activity [13] was “Active”, the half-life [14] was 229 min and the Cmax [15] was 27100 ng/mL. It also gave an AUC [16] of 273 µg·h/mL, a CL/F [17] of 4.88 mL/min/kg and a half-life [18] of 250 min. It also gave a Tmax [19] of 1 h, a Cmax [20] of 4380 ng/mL and an AUC [21] of 13500 ng·h/mL. The IC50 [22] was 690 nM, the IC50 [23] was 34 nM and the Activity [24] was “Active”. The Activity [25] was “Active”, the Activity [26] was “Active” and the Activity [27] was “Active”. The Activity [28] was “Active”, the Activity [29] was “Active” and the Activity [30] was “Active”. For the same molecule, the Activity [31] was “Active”, the permeability [32] was “Impermeable” and the Activity [33] was 38.6%. The Activity [34] was 62.3%, the Activity [35] was 63.4% and the Activity [36] was “Non-Toxic”.
